From patent US20020085997A1, “TUMOUR VACCINE AND PROCESS FOR THE PREPARATION THEREOF” (priority 1995, published 2002)

Tested on: highly tumorigenic variant of the M-3 cells
Assay type: in vivo, mice

## LFEAIEGFI [Leu Phe Glu Ala Ile Glu Gly Phe Ile, viral peptide derived from the influenza virus haemagglutinin, H2-K^d-ligand, used as foreign peptide to charge tumour cells]
Cells charged with peptide using TfpL/DNA complexes
  animals cured: 6 out of 8
Peptide simply mixed with the cells (adjuvant)
  animals developed tumours: 7 out of 8
